For data set [1], the target named is Human immunodeficiency virus type 1 protease (Human immunodeficiency virus 1, UniProt Q72874). In words: Evaluated for the inhibition of HIV protease.
The target in data set [2] is Human immunodeficiency virus type 1 protease (Human immunodeficiency virus 1) (UniProt Q72874). In words: Inhibition of the spread of HIV-1 IIIb infection in MT-4 human T-lymphoid cells. It counts as functional, cell-based.
Data set [3] can be described thus: Partition coefficient of the compound was evaluated. It counts as physicochemical. To be noted: octanol/water.
The test system of data set [4] is MT4. Description: Compound was evaluated for the inhibition of the spread of HIV-1 IIIb infection in MT-4 human T-lymphoid cells; value ranges from 25-100 nM. In kind it is functional. As to conditions: read-out: CIC95.
The nature of data set [5]: Compound was evaluated for maximum plasma concentration levels in dogs at 10 mg/kg (in 0.05M citric acid solution) po. To be noted: dog.
Data set [6] concerns MT4. In words: Compound was evaluated for the inhibition of the spread of HIV-1 IIIb infection in MT-4 human T-lymphoid cells; value ranges from 50-100 nM. As to conditions: read-out: CIC95. It counts as functional.
Data set [7] concerns MT4. In words: Compound was evaluated for the inhibition of the spread of HIV-1 IIIb infection in MT-4 human T-lymphoid cells; value ranges from 25-50 nM. In kind it is functional. To be noted: read-out: CIC95.
Data set [8] in a line: Compound was evaluated for the solubility at pH value of 7.4. As to conditions: pH 7.4. In kind it is physicochemical.
Data set [9] relates to MT4. Description: Compound was evaluated for the inhibition of the spread of HIV-1 IIIb infection in MT-4 human T-lymphoid cells; value ranges from […]-[…] nM. In kind it is functional. To be noted: read-out: CIC95.

On to `CC(C)(C)NC(=O)[C@@H]1CN(Cc2ccccc2S)CCN1C[C@@H](O)C[C@@H](Cc1ccccc1)C(=O)N[C@@H]1c2ccccc2C[C@H]1O`, for which the IC50 in data set [1] was found to be 0.54 nM. The molecule also showed an IC95 in data set [2] of 25 nM.
In data set [3], `CC(C)(C)NC(=O)[C@@H]1CN(Cc2cccnc2)CCN1C[C@@H](O)C[C@@H](Cc1ccccc1)C(=O)NC1c2ccccc2C[C@H]1O.O` (single isomer, unassigned) gave a logP of 2.92. Moreover, in the data set with MT4 [4], the IC95 worked out at 25 nM. In [5], the Cmax turned out to be 11400 nM.
In [1], `CC(C)(C)NC(=O)[C@@H]1CNCCN1C[C@@H](O)C[C@@H](Cc1ccccc1)C(=O)N[C@@H]1c2ccccc2C[C@H]1O` showed an IC50 of 38 nM. In addition, the IC95 in [2] worked out at 3000 nM.
Regarding `CC(C)(C)NC(=O)[C@@H]1CN(Cc2ccncc2)CCN1C[C@@H](O)C[C@@H](Cc1ccccc1)C(=O)N[C@@H]1c2ccccc2C[C@H]1O`, in [1], the IC50 amounted to 0.39 nM. Also, the IC95 in the data set on MT4 [6] is 50 nM.
In [1], `CC(C)(C)NC(=O)[C@@H]1CN(CCOCc2ccccc2)CCN1C[C@@H](O)C[C@@H](Cc1ccccc1)C(=O)N[C@@H]1c2ccccc2C[C@H]1O` had an IC50 of 1.03 nM. In addition, the IC95 in [2] was 100 nM.
`CC(C)(C)NC(=O)[C@@H]1CN(Cc2ccc(F)cc2F)CCN1C[C@@H](O)C[C@@H](Cc1ccccc1)C(=O)N[C@@H]1c2ccccc2C[C@H]1O` displayed a concentration for half-maximal inhibition (IC50) in data set [1] of 0.31 nM. Further, the IC95 in the data set on MT4 [7] was found to be 25 nM. This molecule also registered a logP in [3] of 3.69. Also, in [5], the peak concentration (Cmax) is 730 nM.
For `CC(C)(C)NC(=O)[C@@H]1CCCN1C[C@@H](O)C[C@@H](Cc1ccccc1)C(=O)N[C@@H]1c2ccccc2C[C@H]1O`, in data set [1], inhibition was half-maximal at 347 nM (IC50). Also, the IC95 in data set [2] worked out at 1500 nM.
`CC(C)(C)NC(=O)[C@@H]1CN(C(=O)OCc2ccccc2)CCN1C[C@@H](O)C[C@@H](Cc1ccccc1)C(=O)NC1c2ccccc2C[C@H]1O` (single isomer, unassigned) displayed a solubility in [8] of less than 1 µg/mL. The IC50 in data set [1] was 0.36 nM. In [3], the logP amounted to 4.67. The same molecule returned an IC95 in [2] of 100 nM. The highest concentration (Cmax) in data set [5] was less than 100 nM.
For the molecule `CC(C)(C)NC(=O)[C@@H]1CCCCN1C[C@@H](O)C[C@@H](Cc1ccccc1)C(=O)N[C@@H]1c2ccccc2C[C@H]1O`, the IC50 in [1] is 80 nM.
As for `CC(C)(C)NC(=O)[C@@H]1CN(S(=O)(=O)c2cccc3cccnc23)CCN1C[C@@H](O)C[C@@H](Cc1ccccc1)C(=O)N[C@@H]1c2ccccc2C[C@H]1O`, in [8], the solubility was less than 1 µg/mL. Moreover, in data set [1], the half-maximal inhibitory concentration (IC50) worked out at 0.013 nM. Also, the logP in data set [3] is 3.7. Also, the IC95 in the data set with MT4 [9] was determined as 12.5 nM. In data set [5], this molecule yielded a Cmax of less than 100 nM.
Take `CC(C)(C)NC(=O)[C@@H]1CN(C(=O)c2cc3ccccc3oc2=O)CCN1C[C@@H](O)C[C@@H](Cc1ccccc1)C(=O)N[C@@H]1c2ccccc2C[C@H]1O`: in data set [1], the midpoint of inhibition, the IC50, lay at 0.13 nM. For the same molecule, the IC95 in data set [2] worked out at 50 nM.
For `CCN1CCN(C[C@@H](O)C[C@@H](Cc2ccccc2)C(=O)N[C@@H]2c3ccccc3C[C@H]2O)[C@H](C(=O)NC(C)(C)C)C1` the same measures were 6.1 nM and greater than 400 nM.
Regarding `CC(C)(C)NC(=O)[C@@H]1CN(Cc2ccccc2)CCN1C[C@@H](O)C[C@@H](Cc1ccccc1)C(=O)N[C@@H]1c2ccccc2C[C@H]1O`, the IC50 in [1] worked out at 0.3 nM. Further, in data set [2], the IC95 came out at 50 nM.
Molecule `CC(C)(C)NC(=O)[C@@H]1CC2CCCCC2CN1C[C@@H](O)C[C@@H](Cc1ccccc1)C(=O)N[C@@H]1c2ccccc2C[C@H]1O` (some centres undefined) came in with an IC50 in [1] of 7.8 nM. In addition, the IC95 in [2] amounted to 400 nM.
With `CC(C)(C)NC(=O)[C@@H]1C[C@H](Oc2ccc3ccccc3c2)CN1C[C@@H](O)C[C@@H](Cc1ccccc1)C(=O)N[C@@H]1c2ccccc2C[C@H]1O`, the IC50 in [1] was 15 nM. In addition, the IC95 in data set [2] is greater than 400 nM.
For `Cc1nc(S(=O)(=O)N2CCN(C[C@@H](O)C[C@@H](Cc3ccccc3)C(=O)N[C@@H]3c4ccccc4C[C@H]3O)[C@H](C(=O)NC(C)(C)C)C2)c(C)s1` the same measures were 0.16 nM and 200 nM.
Molecule `CC(C)(C)NC(=O)[C@@H]1CN(CC(=O)OC(C)(C)C)CCN1C[C@@H](O)C[C@@H](Cc1ccccc1)C(=O)N[C@@H]1c2ccccc2C[C@H]1O` had an IC50 in data set [1] of 0.81 nM. Besides, the IC95 in data set [2] turned out to be 100 nM.
For `CC(C)(C)NC(=O)[C@@H]1CN(S(=O)(=O)c2cccnc2)CCN1C[C@@H](O)C[C@@H](Cc1ccccc1)C(=O)N[C@@H]1c2ccccc2C[C@H]1O` the same measures were 0.3 nM and 200 nM.

As usually defined, the IC50 is the point on the concentration scale where inhibition reaches its midpoint. Lower therefore signals greater potency in that assay. The term logP denotes the decadic logarithm of the partition coefficient of the neutral form, usually between octanol and water. Read a high logP as higher lipophilicity. The Cmax is the peak of the concentration-time curve. As a reminder, the solubility is the dissolved amount per volume that the medium holds.

(Values after ChEMBL document CHEMBL1127364, “L-735,524: the design of a potent and orally bioavailable HIV protease inhibitor” (J Med Chem, 1994).)
